The source of these data is patent publication US20230151017A1, “THERAPEUTIC AGENTS TARGETING GPR35” (PROMETHEUS BIOSCIENCES, INC., priority 2020, published 2023).

This test addresses T1, Human GPR35 (Homo sapiens, UniProt Q9HC97).
T1 construct: Tango receptor fusion (protease cleavage site + Gal4-VP16 transcription factor); host or cells: Jump-In Tango U2OS cells
Kind of test: Beta-Arrestin Assay. The format is cell-based. The following applies: Human GPR35 expressing JumpIn 294S Tango U2OS cells; compounds overnight; LiveBLAzer-FRET B/G (CCF4-AM) readout. The procedure:
Human GPR35 expressing JumpIn (Thermo Fisher) 294S Tango U2OS cells were plated in 384-well format in clear bottom plates at a cell density of 10,000 cells/well and allowed to adhere for 5 hours. Cells were then treated with serially diluted test compounds overnight. The next day, LiveBLAzer-FRET B/G (CCF4-AM) detection reagents were added, and cells were allowed to incubate for 4 hours in the dark at room temp before reading plates on a BioTek Cytation 5 plate reader. To determine EC50 values, data were fit to a four-parameter dose-response curves.

T1 sequence (Q9HC97 whole entry, the tested form may be a part): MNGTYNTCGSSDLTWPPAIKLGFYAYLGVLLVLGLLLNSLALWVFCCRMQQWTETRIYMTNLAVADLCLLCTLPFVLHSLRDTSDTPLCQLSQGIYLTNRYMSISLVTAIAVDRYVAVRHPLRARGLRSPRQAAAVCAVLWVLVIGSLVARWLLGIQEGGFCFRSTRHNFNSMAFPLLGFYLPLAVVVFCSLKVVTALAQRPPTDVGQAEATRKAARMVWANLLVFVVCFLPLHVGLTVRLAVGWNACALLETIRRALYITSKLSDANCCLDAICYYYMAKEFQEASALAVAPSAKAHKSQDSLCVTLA

What is called EC50 is the midpoint of the concentration-response curve. In turn, `CCOc1cc(-c2ccc(C(N)=O)cc2)ccc1-c1nc2[nH]nnc2c(=O)[nH]1` [Compound 101, 3′-Ethoxy-4′-(7-oxo-6,7-dihydro-3H-[1,2,3]triazolo[4,5-d]pyrimidin-5-yl)-[1,1′-biphenyl]-4-carboxamide] showed an EC50 of at most 1000 nM. Turning to `CCOc1cc(-c2cccc(CCCO)c2)ccc1-c1nc2[nH]nnc2c(=O)[nH]1` [Compound 102, 5-(3-Ethoxy-3′-(3-hydroxypropyl)-[1,1′-biphenyl]-4-yl)-3,6-dihydro-7H-[1,2,3]triazolo[4,5-d]pyrimidin-7-one], the EC50 was at most 1000 nM. As to `CCOc1cc(-c2cccc(CCO)c2)ccc1-c1nc2[nH]nnc2c(=O)[nH]1` [Compound 103, 5-(3-Ethoxy-3′-(2-hydroxyethyl)-[1,1′-biphenyl]-4-yl)-3,6-dihydro-7H-[1,2,3]triazolo[4,5-d]pyrimidin-7-one], the EC50 fell in the range of 1000 to 10000 nM. For `CCOc1cc(-c2cccc(CO)c2)ccc1-c1nc2[nH]nnc2c(=O)[nH]1` [Compound 104, 5-(3-Ethoxy-3′-(hydroxymethyl)-[1,1′-biphenyl]-4-yl)-3,6-dihydro-7H-[1,2,3]triazolo[4,5-d]pyrimidin-7-one] the value was at most 1000 nM; for `CCOc1cc(-c2ccc(CO)cc2)ccc1-c1nc2[nH]nnc2c(=O)[nH]1` [Compound 105, 5-(3-Ethoxy-4′-(hydroxymethyl)-[1,1′-biphenyl]-4-yl)-3,6-dihydro-7H-[1,2,3]triazolo[4,5-d]pyrimidin-7-one], at most 1000 nM.

In turn, `CCOc1cc(-c2cccc(S(N)(=O)=O)c2)ccc1-c1nc2[nH]nnc2c(=O)[nH]1` [Compound 106, 3′-Ethoxy-4′-(7-oxo-6,7-dihydro-3H-[1,2,3]triazolo[4,5-d]pyrimidin-5-yl)-[1,1′-biphenyl]-3-sulfonamide] yielded an EC50 of 1000 to 10000 nM. In turn, `CCOc1cc(-c2ccc(S(N)(=O)=O)cc2)ccc1-c1nc2[nH]nnc2c(=O)[nH]1` [Compound 107, 3′-Ethoxy-4′-(7-oxo-6,7-dihydro-3H-[1,2,3]triazolo[4,5-d]pyrimidin-5-yl)-[1,1′-biphenyl]-4-sulfonamide] yielded an EC50 of 1000 to 10000 nM.

As to `CCOc1cc(-c2ccc(O)c(O)c2)ccc1-c1nc2[nH]nnc2c(=O)[nH]1` [Compound 108, 5-(3-Ethoxy-3′,4′-dihydroxy-[1,1′-biphenyl]-4-yl)-3,6-dihydro-7H-[1,2,3]triazolo[4,5-d]pyrimidin-7-one], the EC50 was at most 1000 nM. In turn, `CCOc1cc(-c2cc(O)ccc2O)ccc1-c1nc2[nH]nnc2c(=O)[nH]1` [Compound 109, 5-(3-Ethoxy-2′,5′-dihydroxy-[1,1′-biphenyl]-4-yl)-3,6-dihydro-7H-[1,2,3]triazolo[4,5-d]pyrimidin-7-one] gave an EC50 of at most 1000 nM. Take `CCOc1cc(-c2ccc(O)cc2O)ccc1-c1nc2[nH]nnc2c(=O)[nH]1` [Compound 110, 5-(3-Ethoxy-2′,4′-dihydroxy-[1,1′-biphenyl]-4-yl)-3,6-dihydro-7H-[1,2,3]triazolo[4,5-d]pyrimidin-7-one]: the EC50 was in the range of 1000 to 10000 nM. `CCOc1cc(-c2cc(O)cc(O)c2)ccc1-c1nc2[nH]nnc2c(=O)[nH]1` [Compound 111, 5-(3-Ethoxy-3′,5′-dihydroxy-[1,1′-biphenyl]-4-yl)-3,6-dihydro-7H-[1,2,3]triazolo[4,5-d]pyrimidin-7-one] came in with an EC50 of at most 1000 nM. The compound `CCOc1cc(-c2cc(O)cc(/C=C/C(=O)O)c2)ccc1-c1nc2[nH]nnc2c(=O)[nH]1` [Compound 112, (E)-3-(3′-ethoxy-5-hydroxy-4′-(7-oxo-6,7-dihydro-3H-[1,2,3]triazolo[4,5-d]pyrimidin-5-yl)-[1,1′-biphenyl]-3-yl)acrylic acid] had an EC50 of at most 1000 nM. Regarding `CCOc1cc(-c2cc(O)cc(CCC(=O)O)c2)ccc1-c1nc2[nH]nnc2c(=O)[nH]1` [Compound 113, 3-(3′-Ethoxy-5-hydroxy-4′-(7-oxo-6,7-dihydro-3H-[1,2,3]triazolo[4,5-d]pyrimidin-5-yl)-[1,1′-biphenyl]-3-yl)propanoic acid], the EC50 was at most 1000 nM. Turning to `CCOc1cc(-c2cc(O)cc(CCC(N)=O)c2)ccc1-c1nc2[nH]nnc2c(=O)[nH]1` [Compound 114, 3-(3′-Ethoxy-5-hydroxy-4′-(7-oxo-6,7-dihydro-3H-[1,2,3]triazolo[4,5-d]pyrimidin-5-yl)-[1,1′-biphenyl]-3-yl)propanamide], the EC50 was at most 1000 nM. For the compound `CCOc1cc(-c2cc(CCC(=O)O)cc(OCCN)c2)ccc1-c1nc2[nH]nnc2c(=O)[nH]1` [Compound 115, 3-(5-(2-aminoethoxy)-3′-ethoxy-4′-(7-oxo-6,7-dihydro-3H-[1,2,3]triazolo[4,5-d]pyrimidin-5-yl)-[1,1′-biphenyl]-3-yl)propanoic acid], the EC50 is 1000 to 10000 nM.

Take `CCOc1cc(-c2ccc(OCCN)c(CCC(=O)O)c2)ccc1-c1nc2[nH]nnc2c(=O)[nH]1` [Compound 116, 3-(4-(2-Aminoethoxy)-3′-ethoxy-4′-(7-oxo-6,7-dihydro-3H-[1,2,3]triazolo[4,5-d]pyrimidin-5-yl)-[1,1′-biphenyl]-3-yl)propanoic acid]: the EC50 is at most 1000 nM.

With `CCOc1cc(-c2cccc(CCC(=O)NO)c2)ccc1-c1nc2[nH]nnc2c(=O)[nH]1` [Compound 117, 3-(3′-Ethoxy-4′-(7-oxo-6,7-dihydro-3H-[1,2,3]triazolo[4,5-d]pyrimidin-5-yl)-[1,1′-biphenyl]-3-yl)-N-hydroxypropanamide], the EC50 lay in the range of 1000 to 10000 nM. `CCOc1cc(-c2cccc(CCC(=O)NOC)c2)ccc1-c1nc2[nH]nnc2c(=O)[nH]1` [Compound 118, 3-(3′-Ethoxy-4′-(7-oxo-6,7-dihydro-3H-[1,2,3]triazolo[4,5-d]pyrimidin-5-yl)-[1,1′-biphenyl]-3-yl)-N-methoxypropanamide] had a half-maximal effective concentration (EC50) of 1000 to 10000 nM. For `CCOc1cc(-c2cccc(CCC(N)=O)c2)ccc1-c1nc2[nH]nnc2c(=O)[nH]1` [Compound 119, 3-(3′-Ethoxy-4′-(7-oxo-6,7-dihydro-3H-[1,2,3]triazolo[4,5-d]pyrimidin-5-yl)-[1,1′-biphenyl]-3-yl)propanamide] the value was 1000 to 10000 nM. With `CCOc1cc(-c2cccc(/C=C3\SC(=O)NC3=O)c2)ccc1-c1nc2[nH]nnc2c(=O)[nH]1` [Compound 120, (Z)-5-((3′-Ethoxy-4′-(7-oxo-6,7-dihydro-3H-[1,2,3]triazolo[4,5-d]pyrimidin-5-yl)-[1,1′-biphenyl]-3-yl)methylene)thiazolidine-2,4-dione] the figure was at most 1000 nM; with `CCOc1cc(-c2cccc(CC3SC(=O)NC3=O)c2)ccc1-c1nc2[nH]nnc2c(=O)[nH]1` (stereo not shown) [Compound 121, 5-((3′-Ethoxy-4′-(7-oxo-6,7-dihydro-3H-[1,2,3]triazolo[4,5-d]pyrimidin-5-yl)-[1,1′-biphenyl]-3-yl)methyl)thiazolidine-2,4-dione], at most 1000 nM.

The compound `CCOc1cc(-c2cccc(CCc3noc(=O)[nH]3)c2)ccc1-c1nc2[nH]nnc2c(=O)[nH]1` [Compound 122, 3-(2-(3′-Ethoxy-4′-(7-oxo-6,7-dihydro-3H-[1,2,3]triazolo[4,5-d]pyrimidin-5-yl)-[1,1′-biphenyl]-3-yl)ethyl)-1,2,4-oxadiazol-5(4H)-one] yielded an EC50 of at most 1000 nM.

As for `CCOc1cc(-c2cccc(CCC(=O)NS(=O)(=O)N(C)C)c2)ccc1-c1nc2[nH]nnc2c(=O)[nH]1` [Compound 123, N—(N,N-Dimethylsulfamoyl)-3-(3′-ethoxy-4′-(7-oxo-6,7-dihydro-3H-[1,2,3]triazolo[4,5-d]pyrimidin-5-yl)-[1,1′-biphenyl]-3-yl)propanamide], the EC50 was at most 1000 nM. The compound `CCOc1cc(-c2cccc(CCc3nnn[nH]3)c2)ccc1-c1nc2[nH]nnc2c(=O)[nH]1` [Compound 124, 5-(3′-(2-(1H-Tetrazol-5-yl)ethyl)-3-ethoxy-[1,1′-biphenyl]-4-yl)-3,6-dihydro-7H-[1,2,3]triazolo[4,5-d]pyrimidin-7-one] came in with an EC50 of at most 1000 nM. Compound `CCOc1cc(-c2cccc(CC3OC(=O)NC3=O)c2)ccc1-c1nc2[nH]nnc2c(=O)[nH]1` (stereo not shown) [Compound 125, 5-((3′-Ethoxy-4′-(7-oxo-6,7-dihydro-3H-[1,2,3]triazolo[4,5-d]pyrimidin-5-yl)-[1,1′-biphenyl]-3-yl)methyl)oxazolidine-2,4-dione] gave an EC50 of at most 1000 nM. Take `CCOc1cc(-c2cccc(Cc3c(C)[nH]oc3=O)c2)ccc1-c1nc2[nH]nnc2c(=O)[nH]1` [Compound 126, 4-((3′-Ethoxy-4′-(7-oxo-6,7-dihydro-3H-[1,2,3]triazolo[4,5-d]pyrimidin-5-yl)-[1,1′-biphenyl]-3-yl)methyl)-3-methylisoxazol-5(2H)-one]: the EC50 is at most 1000 nM. For `CCOc1cc(-c2cccc(C(O)(O)C(F)(F)F)c2)ccc1-c1nc2[nH]nnc2c(=O)[nH]1` [Compound 127, 5-(3-Ethoxy-3′-(2,2,2-trifluoro-1,1-dihydroxyethyl)-[1,1′-biphenyl]-4-yl)-3,6-dihydro-7H-[1,2,3]triazolo[4,5-d]pyrimidin-7-one] the value was at most 1000 nM; for `CCOc1cc(-c2ccc(C(O)(O)C(F)(F)F)cc2)ccc1-c1nc2[nH]nnc2c(=O)[nH]1` [Compound 128, 5-(3-Ethoxy-4′-(2,2,2-trifluoro-1,1-dihydroxyethyl)-[1,1′-biphenyl]-4-yl)-3,6-dihydro-7H-[1,2,3]triazolo[4,5-d]pyrimidin-7-one], at most 1000 nM.
